Measured values as given in patent US20260034094A1, “COMPOSITIONS AND METHODS FOR INDUCING FERROPTOSIS” (Kojin Therapeutics, Inc., priority 2022, published 2026).
Read-outs that look alike come from different tables or passages of the source.

Assays:
human recombinant GCL = human recombinant GCL (Homo sapiens (Human), UniProt P48506); experiment: GCL enzyme profiling assay (ADP-Glo luminescence); assay type: biochemical; settings: read-out: GCL IC50
In short: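 IC50 fitted by four-parameter logistic to luminescent ADP formation (ADP-Glo). Reaction at room temperature in HEPES pH 7.5 with 30 mM MgCl2, 0.2% F-127, 1% DMSO; 5 nM GCL and 0.6 mM ATP preincubated 1 h before adding 1 mM glutamate plus 1.2 mM α-aminobutyrate for 2 h.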

RKN cells = experiment: RKN cell profiling assay (cell viability, CellTiter-Glo); assay type: cell-based; settings: read-out: Cell Killing EC50
In short: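 Viability read by CellTiter-Glo luminescence after 96 h compound exposure (0.5% DMSO final) of cells plated at 1,000/well in 10% FBS F-12 and allowed 24 h attachment. Four-parameter fits gave EC50; rescue arms used ferrostatin-1, 1.5 μM, present from seeding.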

[1] = human recombinant GCL 5 nM, 1 h preincubation with ATP

human recombinant GCL, sequence (P48506 whole entry): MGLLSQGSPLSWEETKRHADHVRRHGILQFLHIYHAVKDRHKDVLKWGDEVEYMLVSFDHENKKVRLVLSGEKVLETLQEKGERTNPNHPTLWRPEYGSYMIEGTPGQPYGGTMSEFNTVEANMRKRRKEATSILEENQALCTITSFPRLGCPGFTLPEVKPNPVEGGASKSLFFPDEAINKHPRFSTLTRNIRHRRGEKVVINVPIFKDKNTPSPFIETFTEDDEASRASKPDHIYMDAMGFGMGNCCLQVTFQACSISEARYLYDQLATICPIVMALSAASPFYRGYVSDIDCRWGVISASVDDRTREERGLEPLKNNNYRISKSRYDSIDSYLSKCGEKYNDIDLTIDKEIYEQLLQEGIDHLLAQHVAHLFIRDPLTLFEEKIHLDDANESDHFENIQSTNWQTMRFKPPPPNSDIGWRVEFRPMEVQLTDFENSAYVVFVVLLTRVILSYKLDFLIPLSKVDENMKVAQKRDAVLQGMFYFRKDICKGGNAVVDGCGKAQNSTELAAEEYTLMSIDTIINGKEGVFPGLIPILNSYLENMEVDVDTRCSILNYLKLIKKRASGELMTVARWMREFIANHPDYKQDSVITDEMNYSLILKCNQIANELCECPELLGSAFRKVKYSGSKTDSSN

| IC50 (human recombinant GCL; human recombinant GCL, ADP-Glo) [µM] | IC50 (human recombinant GCL; [1]) [µM] | Structure (SMILES) | EC50 (RKN cells; cell viability) [µM] | EC50 (RKN cells; 96 h, 96 h exposure) [µM] |
| --- | --- | --- | --- | --- |
| ≤ 20 |  | N=S(=O)(CCC(c1ccc(-c2cc(Cl)cc(Cl)c2)cc1)C(F)(F)F)CC[C@H](N)C(=O)O (stereo partly shown) [Compound 234] | ≥ 1000 |  |
| 20 to 2000 |  | N=S(=O)(CC[C@H](N)C(=O)O)CCC(O)(C(F)(F)F)C12CC(C1)C2 (stereo partly shown) [Compound 359] | ≥ 1000 |  |
| ≤ 20 |  | N=S(=O)(CC[C@H](N)C(=O)O)CCC(O)(c1ccc(OC(F)(F)F)cc1)C(F)(F)F (stereo partly drawn) [Compound 330, (2S)-2-amino-4-(4,4,4-trifluoro-3-hydroxy-3-(4-(trifluoromethoxy)phenyl)butylsulfonimidoyl)butanoic acid] | ≥ 1000 |  |
| ≤ 20 |  | N=[S@SP2](=O)(CCC(N)C(=O)O)CCC12CC(c3ccc(C(F)(F)F)cc3)(C1)C2(F)F (stereo not shown) [compound 500] | ≥ 1000 |  |
|  | 20 to 2000 | COc1ccccc1CCS(=N)(=O)CC[C@H](N)C(=O)O (stereo partly shown) [Compound 20] |  | ≥ 1000 |
| ≤ 20 |  | N=[S@@](=O)(CC[C@H](N)C(=O)O)CCC1(c2ccccc2)CCC1 (single isomer, unassigned) [Compound 392] | < 1000 |  |
| 20 to 2000 |  | N=S(=O)(CC[C@H](N)C(=O)O)CCC(O)(Cc1ccccc1)C(F)(F)F (stereo partly shown) [Compound 354] | ≥ 1000 |  |
| 20 to 2000 |  | N=S(=O)(CC[C@H](N)C(=O)O)CCC(O)(C1[C@@H](c2ccccc2)[C@H]1c1ccccc1)C(F)(F)F (stereo partly shown) [compound 503] | ≥ 1000 |  |
|  | ≤ 20 | N=S(=O)(CC[C@H](N)C(=O)O)CCC(O)(c1ccccc1Cl)C(F)(F)F (stereo partly drawn) [Compound 209, (2S)-2-amino-4-(3-(2-chlorophenyl)-4,4,4-trifluoro-3-hydroxybutylsulfonimidoyl)butanoic acid] |  | < 1000 |
| ≤ 20 |  | N=S(=O)(CC[C@H](N)C(=O)O)CCC(O)(c1ccc(-c2ccc(F)cc2F)cn1)C(F)(F)F (stereo partly shown) [Compound 477] | < 1000 |  |

Further lines, the compound ahead of its results:

| Structure (SMILES) | IC50 (human recombinant GCL; human recombinant GCL, ADP-Glo) [µM] | IC50 (human recombinant GCL; [1]) [µM] | EC50 (RKN cells; cell viability) [µM] | EC50 (RKN cells; 96 h, 96 h exposure) [µM] |
| --- | --- | --- | --- | --- |
| N=S(=O)(CCC(n1nccn1)C(F)(F)F)CC[C@H](N)C(=O)O (stereo partly drawn) [Compound 404, (2S)-2-amino-4-[[4,4,4-trifluoro-3-(triazol-2-yl)butyl]sulfonimidoyl]butanoic acid] | 20 to 2000 |  | < 1000 |  |
| N=S(=O)(CC[C@H](N)C(=O)O)CCC1(C(N)=O)CCC1 (stereo partly drawn) [Compound 188, (2S)-2-amino-4-(2-(1-carbamoylcyclobutyl)ethylsulfonimidoyl)butanoic acid] |  | 20 to 2000 |  | < 1000 |
| N=S(=O)(CCC(c1ccc(-c2ccc(OC(F)(F)F)cc2)cc1)C(F)(F)F)CC[C@H](N)C(=O)O (stereo partly shown) [Compound 233] | ≤ 20 |  | < 1000 |  |
| CCCCOC(=O)[C@@H](N)CCS(=N)(=O)CCC1CCCCC1 (stereo partly shown) [Compound 78] |  | 20 to 2000 |  | < 1000 |
| Cc1cccc(C(C)(C)CCS(=N)(=O)CC[C@H](N)C(=O)O)c1 (stereo partly shown) [Compound 57] |  | 20 to 2000 |  | ≥ 1000 |
| CCCC(C)(C)OC(=O)[C@@H](N)CCS(=N)(=O)CCCC(F)(F)F (stereo partly shown) [Compound 89] |  | > 2000 |  | < 1000 |
| N=[S@](=O)(CC[C@H](N)C(=O)O)CCC1(c2ccccn2)CCC1 [compound 389] | > 2000 |  | ≥ 1000 |  |
| N[C@@H](CCS(=O)(=O)CCC1(c2ccccn2)CCC1)C(=O)O [compound 390] | > 2000 |  | ≥ 1000 |  |
| COC(CC[S@](=N)(=O)CC[C@H](N)C(=O)O)C(F)(F)F (stereo partly shown) [Compound 178] |  | ≤ 20 |  | < 1000 |
| C#CC(C)(C)CCS(=N)(=O)CC[C@H](N)C(=O)O (stereo partly shown) [Compound 299] | 20 to 2000 |  | < 1000 |  |
| COC(=O)[C@@H](N)CCS(=N)(=O)CCc1cnccn1 (stereo partly drawn) [Compound 67, (2S)-methyl 2-amino-4-(2-(pyrazin-2-yl)ethylsulfonimidoyl)butanoate] |  | > 2000 |  | ≥ 1000 |
| N=S(=O)(CCOC(F)F)CC[C@H](N)C(=O)O (stereo partly shown) [Compound 170] |  | 20 to 2000 |  | ≥ 1000 |
| CCCCS(=N)(=O)CC[C@H](N)C(=O)NS(=O)(=O)C(F)(F)F (stereo partly shown) [Compound 108] |  | > 2000 |  | ≥ 1000 |
| N=S(=O)(CCc1ccc(Cl)cc1)CC[C@H](N)C(=O)O (stereo partly drawn) [Compound 1, (2S)-2-amino-4-(2-(4-chlorophenyl)ethylsulfonimidoyl)butanoic acid] |  | ≤ 20 |  | ≥ 1000 |
| CC(CS(=N)(=O)CC[C@H](N)C(=O)O)c1ccccc1Cl (stereo partly shown) [Compound 38] |  | 20 to 2000 |  | ≥ 1000 |
| Cc1noc(C)c1CCS(=N)(=O)CC[C@H](N)C(=O)O (stereo partly shown) [Compound 35] |  | 20 to 2000 |  | ≥ 1000 |
